# According to patent publication US8450286B2, “Method for treating cancers having high glucose requirements employing an SGLT2 inhibitor and compositions thereof” (Bristol-Myers Squibb Company, priority 2008, dated 2013):
# Assays:
# [1] = test system: subjects with type 2 diabetes; settings: 14-day multiple ascending dose, compared to placebo, FIG. 2
# From the text: Results from the 24-hour glucose excretion are shown in FIG. 2 for all subjects in the MB-102003 study. The mean urine glucose is in the darker lines.
# healthy subjects = healthy subjects taking 5, 20, 50 or 100 mg; versus known SGLT2 inhibitor GSK 869,682 (50, 100, 200 or 500 mg); FIG. 1
# Method: The panel at the top of FIG. 1 is from a presentation by GSK in an analyst meeting, showing the amount of glucose excretion/day in healthy subjects taking 50, 100, 200 or 500 mg of GSK 869,682. The panel at the bottom is from study MB-102001, showing the amount of glucose excretion/day in healthy subjects taking 5, 20, 50 or 100 mg of compound Ia.
smiles,measurement,setting,value
CCOc1ccc(Cc2cc([C@@H]3O[C@H](CO)[C@@H](O)[C@H](O)[C@H]3O)ccc2Cl)cc1 [compound Ia],24-hour urine glucose excretion,[1],higher urine glucose excretion
same,glucosuric effect: loss of calories in the urine (glucose excretion/day),healthy subjects,significant loss of calories in the urine
